Consider five compounds from patent US20230398130A1, “METHODS AND COMPOSITIONS FOR DIFFERENTIATING STEM CELLS” (Massachusetts Institute of Technology, priority 2020, published 2023).

Experiment [1] relates to ISC-enriched organoids. Put plainly: Primary screen, 384-well 2.5-D organoid differentiation (ENR+CD, 6 days, Target Selective Inhibitor Library, vs whole-plate median): ATP (CellTiter-Glo 3D, CTG). Particulars: for Dose.FC.CTG: ENR+CD, 6 days, FC vs plate median; for Z.CTG: standard z score of FC. On the technique in general: In ATP-based viability assays light output follows the ATP content of the culture.

In experiment [2] the test system is ISC-enriched organoids. Put plainly: Primary screen, 384-well 2.5-D organoid differentiation (ENR+CD, 6 days): basal lysozyme secretion (LYZ.NS). Particulars: for Dose.FC.LYZ.NS: ENR+CD, 6 days, FC vs plate median; for Z.LYZ.NS: standard z score of FC. It is filed as cell-based, murine. From the text:
(§1) High-throughput screening.

Experiment [3] relates to ISC-enriched organoids. Put plainly: Primary screen, 384-well 2.5-D organoid differentiation (ENR+CD, 6 days): carbachol-induced lysozyme secretion (LYZ.S). It is filed as cell-based, murine. Particulars: ENR+CD, 6 days, FC vs plate median.
Description: as §1

Turning to `COc1ccc(C[C@@H](C)NC[C@H](O)c2ccc(O)c(NC=O)c2)cc1.COc1ccc(C[C@@H](C)NC[C@H](O)c2ccc(O)c(NC=O)c2)cc1.O=C(O)/C=C/C(=O)O` [Formoterol Hemifumarate], the Dose.FC.CTG is on record as 0.294 log 2 fold change in the experiment with ISC-enriched organoids [1] (Dose 0.08 uM), 0.265 log 2 fold change in the experiment on ISC-enriched organoids [1] (Dose 0.40 uM), 0.242 log 2 fold change in the experiment on ISC-enriched organoids [1] (Dose 2.00 uM) and 0.253 log 2 fold change in the experiment on ISC-enriched organoids [1] (Dose 10.00 uM). Further, the Z.CTG in the experiment with ISC-enriched organoids [1] (Dose 0.08 uM) came to 0.703; with ISC-enriched organoids [1] (Dose 0.40 uM), 0.633; with ISC-enriched organoids [1] (Dose 2.00 uM) it was 0.578; in the experiment with ISC-enriched organoids [1] (Dose 10.00 uM), 0.604. The Dose.FC.LYZ.NS was determined as 0.145 log 2 fold change in the experiment with ISC-enriched organoids [2] (Dose 0.08 uM), 0.073 log 2 fold change with ISC-enriched organoids [2] (Dose 0.40 uM), 0.048 log 2 fold change in the experiment with ISC-enriched organoids [2] (Dose 2.00 uM) and 0.013 log 2 fold change in the experiment on ISC-enriched organoids [2] (Dose 10.00 uM). Also, the Z.LYZ.NS in the experiment with ISC-enriched organoids [2] (Dose 0.08 uM) is 1.263; with ISC-enriched organoids [2] (Dose 0.40 uM), 0.638; with ISC-enriched organoids [2] (Dose 2.00 uM), 0.420; in the experiment with ISC-enriched organoids [2] (Dose 10.00 uM) it was 0.114. Further, the Dose.FC.LYZ.S in the experiment with ISC-enriched organoids [3] (Dose 0.08 uM) turned out to be 0.206 log 2 fold change; in the experiment on ISC-enriched organoids [3] (Dose 0.40 uM), 0.293 log 2 fold change; in the experiment with ISC-enriched organoids [3] (Dose 2.00 uM), 0.090 log 2 fold change; with ISC-enriched organoids [3] (Dose 10.00 uM), 0.011 log 2 fold change.

Turning to `COc1cc(Nc2ncc(F)c(Nc3ccc4c(n3)N(COP(=O)(O)O)C(=O)C(C)(C)O4)n2)cc(OC)c1OC` [Fostamatinib (R788)], the Dose.FC.CTG in the experiment with ISC-enriched organoids [1] (Dose 0.08 uM) is 0.232 log 2 fold change; with ISC-enriched organoids [1] (Dose 0.40 uM), −0.052 log 2 fold change; with ISC-enriched organoids [1] (Dose 2.00 uM), −0.231 log 2 fold change; with ISC-enriched organoids [1] (Dose 10.00 uM), −0.881 log 2 fold change. The Z.CTG in the experiment on ISC-enriched organoids [1] (Dose 0.08 uM) is listed as 0.554; with ISC-enriched organoids [1] (Dose 0.40 uM) it was −0.123; with ISC-enriched organoids [1] (Dose 2.00 uM), −0.552; with ISC-enriched organoids [1] (Dose 10.00 uM), −2.105. Besides, the Dose.FC.LYZ.NS was 0.119 log 2 fold change in the experiment on ISC-enriched organoids [2] (Dose 0.08 uM), −0.025 log 2 fold change in the experiment with ISC-enriched organoids [2] (Dose 0.40 uM), −0.099 log 2 fold change in the experiment on ISC-enriched organoids [2] (Dose 2.00 uM) and −0.234 log 2 fold change in the experiment with ISC-enriched organoids [2] (Dose 10.00 uM). Further, the Z.LYZ.NS with ISC-enriched organoids [2] (Dose 0.08 uM) is given as 1.033; in the experiment with ISC-enriched organoids [2] (Dose 0.40 uM), −0.217; in the experiment on ISC-enriched organoids [2] (Dose 2.00 uM), −0.860; in the experiment on ISC-enriched organoids [2] (Dose 10.00 uM) it was −2.036. For the same compound, the Dose.FC.LYZ.S was 0.235 log 2 fold change in the experiment on ISC-enriched organoids [3] (Dose 0.08 uM), 0.156 log 2 fold change in the experiment on ISC-enriched organoids [3] (Dose 0.40 uM), −0.015 log 2 fold change in the experiment on ISC-enriched organoids [3] (Dose 2.00 uM) and −0.350 log 2 fold change in the experiment on ISC-enriched organoids [3] (Dose 10.00 uM).

For the compound `CC(C)NC[C@@H](C(=O)N1CCN(c2ncnc3c2[C@H](C)C[C@H]3O)CC1)c1ccc(Cl)cc1` [GDC-0068], the Dose.FC.CTG with ISC-enriched organoids [1] (Dose 0.08 uM) is given as 0.042 log 2 fold change; with ISC-enriched organoids [1] (Dose 0.40 uM), 0.118 log 2 fold change; with ISC-enriched organoids [1] (Dose 2.00 uM) it was 0.184 log 2 fold change; in the experiment on ISC-enriched organoids [1] (Dose 10.00 uM) it was −0.100 log 2 fold change. For the same compound, the Z.CTG in the experiment with ISC-enriched organoids [1] (Dose 0.08 uM) is 0.099; in the experiment with ISC-enriched organoids [1] (Dose 0.40 uM) it was 0.283; in the experiment on ISC-enriched organoids [1] (Dose 2.00 uM) it was 0.439; with ISC-enriched organoids [1] (Dose 10.00 uM), −0.238. Further, the Dose.FC.LYZ.NS in the experiment on ISC-enriched organoids [2] (Dose 0.08 uM) is on record as 0.036 log 2 fold change; in the experiment with ISC-enriched organoids [2] (Dose 0.40 uM) it was 0.054 log 2 fold change; with ISC-enriched organoids [2] (Dose 2.00 uM) it was −0.077 log 2 fold change; with ISC-enriched organoids [2] (Dose 10.00 uM), −0.185 log 2 fold change. Moreover, the Z.LYZ.NS in the experiment on ISC-enriched organoids [2] (Dose 0.08 uM) is recorded as 0.311; in the experiment on ISC-enriched organoids [2] (Dose 0.40 uM), 0.469; in the experiment with ISC-enriched organoids [2] (Dose 2.00 uM), −0.675; in the experiment with ISC-enriched organoids [2] (Dose 10.00 uM), −1.613. In addition, the Dose.FC.LYZ.S with ISC-enriched organoids [3] (Dose 0.08 uM) was 0.076 log 2 fold change; with ISC-enriched organoids [3] (Dose 0.40 uM), 0.087 log 2 fold change; in the experiment with ISC-enriched organoids [3] (Dose 2.00 uM) it was −0.059 log 2 fold change; in the experiment with ISC-enriched organoids [3] (Dose 10.00 uM), −0.319 log 2 fold change.

Regarding `CN[C@@H](C)C(=O)N[C@H](C(=O)N1CCC[C@H]1C(=O)Nc1snnc1-c1ccccc1)C1CCCCC1` [GDC-0152], the Dose.FC.CTG in the experiment with ISC-enriched organoids [1] (Dose 0.08 uM) is recorded as 0.151 log 2 fold change; with ISC-enriched organoids [1] (Dose 0.40 uM), 0.158 log 2 fold change; in the experiment on ISC-enriched organoids [1] (Dose 2.00 uM) it was 0.003 log 2 fold change; in the experiment with ISC-enriched organoids [1] (Dose 10.00 uM) it was 0.241 log 2 fold change. For the same compound, the Z.CTG in the experiment with ISC-enriched organoids [1] (Dose 0.08 uM) is recorded as 0.361; in the experiment on ISC-enriched organoids [1] (Dose 0.40 uM), 0.377; with ISC-enriched organoids [1] (Dose 2.00 uM) it was 0.008; in the experiment with ISC-enriched organoids [1] (Dose 10.00 uM), 0.575. Moreover, the Dose.FC.LYZ.NS in the experiment on ISC-enriched organoids [2] (Dose 0.08 uM) was −0.002 log 2 fold change; in the experiment on ISC-enriched organoids [2] (Dose 0.40 uM), −0.020 log 2 fold change; in the experiment with ISC-enriched organoids [2] (Dose 2.00 uM) it was 0.083 log 2 fold change; in the experiment with ISC-enriched organoids [2] (Dose 10.00 uM), 0.103 log 2 fold change. Also, the Z.LYZ.NS in the experiment with ISC-enriched organoids [2] (Dose 0.08 uM) is −0.013; with ISC-enriched organoids [2] (Dose 0.40 uM) it was −0.176; with ISC-enriched organoids [2] (Dose 2.00 uM) it was 0.724; in the experiment with ISC-enriched organoids [2] (Dose 10.00 uM), 0.900. The Dose.FC.LYZ.S is −0.020 log 2 fold change in the experiment on ISC-enriched organoids [3] (Dose 0.08 uM), −0.036 log 2 fold change with ISC-enriched organoids [3] (Dose 0.40 uM), −0.057 log 2 fold change in the experiment on ISC-enriched organoids [3] (Dose 2.00 uM) and −0.009 log 2 fold change with ISC-enriched organoids [3] (Dose 10.00 uM).

Turning to `CS(=O)(=O)N1CCN(Cc2cc3nc(-c4cccc5[nH]ncc45)nc(N4CCOCC4)c3s2)CC1` [GDC-0941], the Dose.FC.CTG in the experiment with ISC-enriched organoids [1] (Dose 0.08 uM) is given as 0.283 log 2 fold change; in the experiment with ISC-enriched organoids [1] (Dose 0.40 uM), 0.022 log 2 fold change; in the experiment with ISC-enriched organoids [1] (Dose 2.00 uM), −0.197 log 2 fold change; in the experiment with ISC-enriched organoids [1] (Dose 10.00 uM), −1.223 log 2 fold change. The Z.CTG in the experiment on ISC-enriched organoids [1] (Dose 0.08 uM) is listed as 0.677; with ISC-enriched organoids [1] (Dose 0.40 uM), 0.053; in the experiment on ISC-enriched organoids [1] (Dose 2.00 uM) it was −0.472; in the experiment on ISC-enriched organoids [1] (Dose 10.00 uM), −2.921. For the same compound, the Dose.FC.LYZ.NS with ISC-enriched organoids [2] (Dose 0.08 uM) was 0.008 log 2 fold change; with ISC-enriched organoids [2] (Dose 0.40 uM), −0.013 log 2 fold change; in the experiment on ISC-enriched organoids [2] (Dose 2.00 uM) it was −0.128 log 2 fold change; in the experiment with ISC-enriched organoids [2] (Dose 10.00 uM) it was −0.156 log 2 fold change. Moreover, the Z.LYZ.NS is listed as 0.070 in the experiment with ISC-enriched organoids [2] (Dose 0.08 uM), −0.112 in the experiment with ISC-enriched organoids [2] (Dose 0.40 uM), −1.113 with ISC-enriched organoids [2] (Dose 2.00 uM) and −1.362 in the experiment with ISC-enriched organoids [2] (Dose 10.00 uM). The Dose.FC.LYZ.S in the experiment on ISC-enriched organoids [3] (Dose 0.08 uM) is on record as 0.018 log 2 fold change; in the experiment on ISC-enriched organoids [3] (Dose 0.40 uM), −0.076 log 2 fold change; with ISC-enriched organoids [3] (Dose 2.00 uM) it was −0.248 log 2 fold change; in the experiment with ISC-enriched organoids [3] (Dose 10.00 uM), −0.257 log 2 fold change.
